# Measurements published in patent publication US7585460B2, “Method for inhibiting the biological acidification of water in contact with materials containing sulfur” (ENI S.p.A., priority 2003, dated 2009).
# Tests used:
# Thiobacilli (consortium) [1] = experiment: Effect of different salts on acidification, TM medium with sulfur powder and inoculated mixed culture (Example 7); assay type: cell-based, Thiobacillus
# Procedure: The verification is aimed at discovering the effects deriving from the presence of different salts at varying concentrations on the same consortium.
# A series of 12 100 ml flasks containing 50 ml of TM medium (with 0.4 g of sulfur powder), was inoculated with 1 ml of mixed culture containing 10^8 cells/ml.
# • 3 control flasks containing TM and sulfur, with NaCl (0.16 M, 0.33 M, 0.56 M); • 3 flasks with TM, sulfur and Na2SO4 (0.12 M, 0.24 M, 0.56 M); • 3 flasks with TM, sulfur and KCl (0.13 M, 0.26 M, 0.56 M); • 3 flasks with TM, sulfur and KNO3 (0.09 M, 0.19 M, 0.56 M) The data collected are listed in Table 6.
# Thiobacilli (consortium) [2] = experiment: Acidification of TM medium with sulfur powder inoculated with a culture of Thiobacilli (Example 3); assay type: cell-based, Thiobacillus; conditions: 33 g/l NaCl
# Procedure: 25 ml of TM medium (regulated to pH 6 with HCl 0.1 N and sterilized in an autoclave with vapour for 20 minutes at 121° C.) were introduced into 100 ml flasks. 0.1 g (0.4%) of elemental sulfur (sulfur powder 98%-UNI sieved:0.05) were added to the TM culture medium. 2 g of small sulfur fragments taken from a sulfur deposit in Canada exposed for years to the outside environment and consequently definitely contaminated by sulfo-oxidizing bacteria, were added to the medium as a source of micro-organisms. The cultures were incubated under bland orbital stirring (100 rpm) for 25 days. During the incubation, the cultures were controlled daily for the indirect quantitative evaluation of the cellular development by registering the optical density value (at 600 nm) and to measure the lowering of the pH value.
# At the end of this period, the culture broths obtained, with a cellular density higher than 10^7 cells/ml and a lowering of the pH of the medium to a value of 1.5, were filtered on common filter paper to eliminate the particles of excess sulfur and to be preserved, in 2 ml aliquots, in polypropylene phials, in a refrigerator at −70° C., as standardized inoculum.
# The two consortia: that produced starting from collection strains and the one prepared starting from sulfur samples removed from actual deposits, were compared with respect to the growth curves and acidification capacity. […] It was then decided to use, for the whole following experiment, the trigger culture consisting of the wild type strains selected from the natural environment. This culture is hereafter called “consortium”.
# 25 ml of TM—in demineralized water—at pH 6, inoculated with 0.4% (vol/vol) of the bacterial suspension (consortium), with the addition of 0.1 g of sulfur powder, were introduced into 100 ml flasks. 33 g/l of NaCl were added to the medium to evaluate the inhibiting effect of the salt on the growth of the Thiobacilli and the acidification of the solution. Control cultures without NaCl were incubated parallelly.
# The culture broths were controlled for pH and absorbance variations.
structure (smiles),measurement,setting,value
"[Cl-].[Na+] [NaCl, Sodium Chloride]",PH,"Thiobacilli (consortium) [1]; salt 0.16 M, day 0",6.0
same,PH,"Thiobacilli (consortium) [1]; salt 0.16 M, day 2",6.0
same,PH,"Thiobacilli (consortium) [1]; salt 0.16 M, day 6",3.5
same,PH,"Thiobacilli (consortium) [1]; salt 0.16 M, day 9",2.8
same,PH,"Thiobacilli (consortium) [1]; salt 0.16 M, day 12",2.8
same,PH,"Thiobacilli (consortium) [1]; salt 0.16 M, day 15",2.5
same,PH,"Thiobacilli (consortium) [1]; salt 0.16 M, day 18",2.5
same,PH,"Thiobacilli (consortium) [1]; salt 0.16 M, day 20",2.5
same,PH,"Thiobacilli (consortium) [1]; salt 0.16 M, day 24",2.0
same,PH,"Thiobacilli (consortium) [1]; salt 0.16 M, day 28",1.7
same,PH,"Thiobacilli (consortium) [1]; salt 0.16 M, day 30",1.6
same,PH,"Thiobacilli (consortium) [1]; salt 0.16 M, day 40",1.3
same,PH,"Thiobacilli (consortium) [1]; salt 0.33 M, day 0",6.0
same,PH,"Thiobacilli (consortium) [1]; salt 0.33 M, day 2",6.0
same,PH,"Thiobacilli (consortium) [1]; salt 0.33 M, day 6",5.5
same,PH,"Thiobacilli (consortium) [1]; salt 0.33 M, day 9",5.0
same,PH,"Thiobacilli (consortium) [1]; salt 0.33 M, day 12",3.0
same,PH,"Thiobacilli (consortium) [1]; salt 0.33 M, day 15",3.0
same,PH,"Thiobacilli (consortium) [1]; salt 0.33 M, day 18",3.0
same,PH,"Thiobacilli (consortium) [1]; salt 0.33 M, day 20",2.5
same,PH,"Thiobacilli (consortium) [1]; salt 0.33 M, day 24",2.5
same,PH,"Thiobacilli (consortium) [1]; salt 0.33 M, day 28",1.9
same,PH,"Thiobacilli (consortium) [1]; salt 0.33 M, day 30",1.7
same,PH,"Thiobacilli (consortium) [1]; salt 0.33 M, day 40",1.4
same,PH,"Thiobacilli (consortium) [1]; salt 0.56 M, day 0",6.0
same,PH,"Thiobacilli (consortium) [1]; salt 0.56 M, day 2",6.0
same,PH,"Thiobacilli (consortium) [1]; salt 0.56 M, day 6",6.0
same,PH,"Thiobacilli (consortium) [1]; salt 0.56 M, day 9",6.0
same,PH,"Thiobacilli (consortium) [1]; salt 0.56 M, day 12",6.0
same,PH,"Thiobacilli (consortium) [1]; salt 0.56 M, day 15",6.0
same,PH,"Thiobacilli (consortium) [1]; salt 0.56 M, day 18",6.0
same,PH,"Thiobacilli (consortium) [1]; salt 0.56 M, day 20",6.0
same,PH,"Thiobacilli (consortium) [1]; salt 0.56 M, day 24",6.0
same,PH,"Thiobacilli (consortium) [1]; salt 0.56 M, day 28",6.0
same,PH,"Thiobacilli (consortium) [1]; salt 0.56 M, day 30",6.0
same,PH,"Thiobacilli (consortium) [1]; salt 0.56 M, day 40",5.8
same,Optical density,Thiobacilli (consortium) [2]; day 0,0.021
same,pH,Thiobacilli (consortium) [2]; day 0,6.0
same,Optical density,Thiobacilli (consortium) [2]; day 1,0.025
same,pH,Thiobacilli (consortium) [2]; day 1,6.0
same,Optical density,Thiobacilli (consortium) [2]; day 3,0.024
same,pH,Thiobacilli (consortium) [2]; day 3,6.0
same,Optical density,Thiobacilli (consortium) [2]; day 5,0.028
same,pH,Thiobacilli (consortium) [2]; day 5,5.8
same,Optical density,Thiobacilli (consortium) [2]; day 9,0.021
same,pH,Thiobacilli (consortium) [2]; day 9,5.8
same,Optical density,Thiobacilli (consortium) [2]; day 12,0.021
same,pH,Thiobacilli (consortium) [2]; day 12,5.8
same,Optical density,Thiobacilli (consortium) [2]; day 14,0.021
same,pH,Thiobacilli (consortium) [2]; day 14,5.8
same,Optical density,Thiobacilli (consortium) [2]; day 16,0.014
same,pH,Thiobacilli (consortium) [2]; day 16,5.8
same,Optical density,Thiobacilli (consortium) [2]; day 19,0.012
same,pH,Thiobacilli (consortium) [2]; day 19,5.8
same,Optical density,Thiobacilli (consortium) [2]; day 21,0.010
same,pH,Thiobacilli (consortium) [2]; day 21,5.8
same,Optical density,Thiobacilli (consortium) [2]; day 24,0.010
same,pH,Thiobacilli (consortium) [2]; day 24,5.8
same,Optical density,Thiobacilli (consortium) [2]; day 26,0.014
same,pH,Thiobacilli (consortium) [2]; day 26,5.8
